Read-outs that look alike come from different tables or passages of the source.
Legend:
histamine-H1 receptors = target: T1, histamine-H1 receptors (Cavia porcellus, UniProt P31389); assay: Histamine-H1 receptor binding assay ([3H]-mepyramine, guinea pig cerebellum membranes)
T1 construct: performed in guinea pig cerebellum membranes; from tissue; host or cells: guinea pig cerebellum membranes
Experimental: (1) Histamine-H1 receptor binding assay
Briefly, the membrane suspensions (160 μg/ml) were incubated at 30° C. with 0.7 nM [^3H]- mepyramine and different concentrations of the test compounds in a final volume of 250 μl. Binding reactions were terminated by filtration after 30 min of incubation and the bound radioactivity was determined. The specific binding was measured in the presence of 10 μM of promethazine. The affinity of each test compound to the receptor was determined by using at least six different concentrations run in duplicate. IC50 values were obtained by non-linear regression by use of SAS on a DEC AXP computer.

[1] = system: histamine-induced skin vascular permeability in rats; assay: Histamine-induced skin vascular permeability in rats; format: in vivo; details: Rattus norvegicus, po; 3 mg/Kg orally, 4 hours after administration, male Wistar rats; read-out: inhibition of the histamine-induced wheal
Experimental: (2) Histamine-induced skin vascular permeability in rats
Male Wistar rats (180-210 g) were treated orally with the test compound or vehicle. One, 4, 8 and 24 hours later, the rats were lightly anaesthetized with ether. The cutaneous reaction was induced by two intradermal injections of 50 μl of histamine (100 μg/ml) onto the back, followed by a intravenous injection of 3 ml/kg of Evan's Blue (5 mg/ml), both dissolved in saline. Sixty min later, the rats were killed by cervical dislocation and the back skin dissected free. The diameter (in millimeters) of the wheal was measured in two directions and the area was calculated.

[2] = guinea pig cerebellum membranes, 0.7 nM [3H]-mepyramine, read-out: BINDING TO RECEPTOR H1 ( IC50 nM )

T1 sequence (P31389 whole entry): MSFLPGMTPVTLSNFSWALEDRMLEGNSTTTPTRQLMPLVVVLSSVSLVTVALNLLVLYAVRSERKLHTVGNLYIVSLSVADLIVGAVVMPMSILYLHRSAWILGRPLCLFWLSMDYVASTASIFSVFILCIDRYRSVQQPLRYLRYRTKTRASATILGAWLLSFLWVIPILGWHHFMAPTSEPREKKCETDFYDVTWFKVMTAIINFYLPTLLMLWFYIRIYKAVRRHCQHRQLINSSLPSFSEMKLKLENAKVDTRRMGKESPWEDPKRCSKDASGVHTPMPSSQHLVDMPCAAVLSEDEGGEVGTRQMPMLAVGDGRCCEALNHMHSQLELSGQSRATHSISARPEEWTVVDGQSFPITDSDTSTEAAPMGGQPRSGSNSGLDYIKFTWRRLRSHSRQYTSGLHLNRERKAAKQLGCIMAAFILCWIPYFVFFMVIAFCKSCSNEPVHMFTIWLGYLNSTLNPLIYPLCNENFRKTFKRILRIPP

SMILES | IC50 (histamine-H1 receptors; [2]) [nM] | melting point [°C] | inhibition in vivo at 3 mg/kg [1] [%] | IC50 (histamine-H1 receptors) [nM]
CCCCn1cc(C2CCN(CCOc3ccccc3C(=O)O)CC2)c2ccccc21 [Example 148, 2-{2-[4-(1-butyl-1H-indol-3-yl)-piperidin-1-yl]-ethoxy}-benzoic acid] | 127 |  | > 50 | 
CC(C)OCCn1cc(C2CCN(CCOc3ccccc3C(=O)O)CC2)c2ccccc21 [Example 108, 2-(2-{4-[1-(2-iso-propoxy-ethyl)-1H-indol-3-yl]-piperidin-1-yl}-ethoxy)-benzoic acid] | 275 |  | > 50 | 
CCOCCn1cc(C2CCN(CCOc3ccccc3C(=O)O)CC2)c2ccccc21 [Example 138, 2-(2-{4-[1-(2-ethoxy-ethyl)-1H-indol-3-yl]piperidin-1-yl}-ethoxy)-benzoic acid] | 86 |  | > 50 | 
CCCCCCn1cc(C2CCN(CCOc3ccccc3C(=O)O)CC2)c2ccccc21 [Example 149, 2-{2-[4-(1-hexyl-1H-indol-3-yl)-piperidin-1-yl]-ethoxy}-benzoic acid] | 142 |  | > 50 | 
O=C(O)c1ccccc1OCCN1CCC(c2cn(CC3CC3)c3ccccc23)CC1 [Example 157, 2-{2-[4-(1-cyclopropylmethyl-1H-indol-3-yl)-piperidin-1-yl]-ethoxy}-benzoic acid] | 140 | 145 to 147 | > 50 | 
CCOCCn1cc(C2CCN(CCOc3cccc(C(=O)O)c3)CC2)c2ccccc21 [Example 10] | 145 |  |  | 
CCOCCn1cc(C2CCN(CCOc3ccc(C)cc3C(=O)O)CC2)c2cccc(Br)c21 [Example 143, 2-(2-{4-[7-bromo-1-(2-ethoxy-ethyl)-1H-indol-3-yl]-piperidin-1-yl}-ethoxy)-5-methyl-benzoic acid] | 222 |  |  | 
CCOCCn1cc(C2CCN(Cc3cccc(C(=O)O)c3)CC2)c2ccccc21 [Example 66, 3-{4-[1-(2-ethoxy-ethyl)-1H-indol-3-yl]-piperidin-1-ylmethyl}-benzoic acid] | 248 |  |  | 
CCOCCn1cc(C2CCN(CCOc3cccc(F)c3C(=O)O)CC2)c2cccc(Br)c21 [Example 85, 2-(2-{4-[7-bromo-1-(2-ethoxy-ethyl)-1H-indol-3-yl]-piperidin-1-yl}-ethoxy)-6-fluoro-benzoic acid] | 152 |  |  | 
CCOCCn1cc(C2CCN(CCOc3ccc(C)cc3C(=O)O)CC2)c2ccccc21 [Example 154, 2-(2-{4-[1-(2-ethoxy-ethyl)-1H-indol-3-yl]-piperidin-1-yl}-ethoxy)-5-methyl-benzoic acid] |  | 109 to 112 |  | 
C=CCOCCn1cc(C2CCN(CCOc3ccccc3C(=O)O)CC2)c2ccccc21 [Example 134, 2-(2-{4-[1-(2-allyloxy-ethyl)-1H-indol-3-yl]-piperidin-1-yl}-ethoxy)-benzoic acid] | 86 |  |  | 
CCCCCn1cc(C2CCN(Cc3ccc(C(=O)O)o3)CC2)c2ccccc21 [Example 41, 5-[4-(1-pentyl-1H-indol-3-yl)-piperidin-1-yl-methyl]-furan-2-carboxylic acid] | 111 | 163 to 165 | > 50 | 
COCCOCCn1cc(C2CCN(Cc3ccc(C(=O)O)o3)CC2)c2ccccc21 [Example 40, 5-(4-{1-[2-(2-methoxy-ethoxy)-ethyl]-1H-indol-3-yl}-piperidin-1-yl-methyl)-furan-2-carboxylic acid] | 210 | 159 |  | 
O=C(O)c1cccc(CN2CCC(c3cn(CC4CC4)c4ccccc34)CC2)c1 [Example 158, 3-[4-(1-cyclopropylmethyl-1H-indol-3-yl)-piperidin-1-ylmethyl]-benzoic acid] | 104 | 207 | > 50 | 
CC(C)CCn1cc(C2CCN(CCOc3ccccc3C(=O)O)CC2)c2ccccc21 [Example 139, 2-(2-{4-[1-(3-methyl-butyl)-1H-indol-3-yl]-piperidin-1-yl}-ethoxy)-benzoic acid] | 205 | 150 to 151 |  | 
CCCCCn1cc(C2CCN(CCOCC(=O)O)CC2)c2ccccc21 [Example 38, {2-[4-(1-pentyl-1H-indol-3-yl)-piperidin-1-yl]-ethoxy}-acetic acid] |  |  |  | 174
O=C(O)c1ccccc1OCCN1CCC(c2cn(CC3CC3)c3cc(F)ccc23)CC1 [Example 150, 2-{2-[4-(1-cyclopropylmethyl-6-fluoro-1H-indol-3-yl)-piperidin-1-yl]-ethoxy}-benzoic acid] | 121 | 97 | > 50 | 
CCCCCn1cc(C2CCN(CCOc3ccccc3C(=O)O)CC2)c2ccccc21 [Example 2, 2-{2-[4-(1-pentyl-1H-indol-3-yl)-piperidin-1-yl]-ethoxy}-benzoic acid] | 57 | 113 | > 50 | 
CCOCCn1cc(C2CCN(CCCOc3cccc(C(=O)O)c3)CC2)c2ccccc21 [Example 19, 3-(3-{4-[1-(2-ethoxy-ethyl)-1H-indol-3-yl]-piperidin-1-yl}-propoxy)-benzoic acid] | 89 |  |  | 
CCOCCn1cc(C2CCN(CCOc3ccc(C)cc3C(=O)O)CC2)c2cc(OC)ccc21 [Example 142, 2-(2-{4-[1-(2-ethoxy-ethyl)-5-methoxy-1H-indol-3-yl]-piperidin-1-yl}-ethoxy)-5-methyl-benzoic acid] | 386 | 144 to 146 | > 50 | 
O=C(O)c1cccc(CN2CCC(c3c[nH]c4ccccc34)CC2)c1 [Example 54, 3-[4-(1H-indol-3-yl)-piperidin-1-ylmethyl]-benzoic acid] | 106 |  |  | 
CCOCCn1cc(C2CCN(CCCC(=O)O)CC2)c2ccccc21 [Example 3, 4-{4-[1-(2-ethoxy-ethyl)-1H-indol-3-yl]-piperidin-1-yl}-butyric acid] | 347 |  |  | 
CCCCCn1cc(C2CCN(CCCC(O)c3ccc(C(C)(C)C(=O)O)cc3)CC2)c2ccccc21 (stereo not drawn) [Example 34, 2-(4-{1-hydroxy-4-[4-(1-pentyl-1H-indol-3-yl)-piperidin-1-yl]-butyl}-phenyl)-2-methyl-propionic acid] | 127 |  |  | 

Further lines, with some results ahead:

IC50 (histamine-H1 receptors; [2]) [nM] | melting point [°C] | SMILES | inhibition in vivo at 3 mg/kg [1] [%] | IC50 (histamine-H1 receptors) [nM]
 | 230 | O=C(O)c1ccccc1OCCN1CCC(c2c[nH]c3ccccc23)CC1 [Example 151, 2-{2-[4-(1H-indol-3-yl)-piperidin-1-yl]-ethoxy}-benzoic acid] |  | 
226 |  | O=C(O)COCCN1CCN(C(c2ccccc2)c2ccc(Cl)cc2)CC1 (stereo not drawn) [CETIRIZINE, reference compound] |  | 
83 | 139 to 140 | COCCn1cc(C2CCN(CCOc3ccccc3C(=O)O)CC2)c2ccccc21 [Example 140, 2-(2-{4-[1-(2-methoxy-ethyl)-1H-indol-3-yl]-piperidin-1-yl}-ethoxy)-benzoic acid] | > 50 | 
310 |  | O=C(O)c1ccccc1OCCN1CCC(c2cn(Cc3ccc(F)cc3)c3ccccc23)CC1 [Example 1, 2-(2-{4-[1-(4-fluoro-benzyl)-1H-indol-3-yl]-piperidin-1-yl}-ethoxy)-benzoic acid] |  | 
68 | 83 to 85 | O=C(O)Cc1ccc(OCCCN2CCC(c3cn(CC4CC4)c4ccccc34)CC2)cc1 [Example 159, (4-{3-[4-(1-cyclopropylmethyl-1H-indol-3-yl)-piperidin-1-yl]-propoxy}-phenyl)-acetic acid] |  | 
88 |  | CCCCCn1cc(C2CCN(CCCOc3ccccc3C(=O)O)CC2)c2ccccc21 [Example 15, 2-{3-[4-(1-pentyl-1H-indol-3-yl)-piperidin-1-yl]-propoxy}-benzoic acid] |  | 
150 |  | CCOCCn1cc(C2CCN(CCOc3ccc(C(=O)O)cc3)CC2)c2ccccc21 [Example 137, 4-(2-{4-[1-(2-ethoxy-ethyl)-1H-indol-3-yl]piperidin-1-yl}-ethoxy)-benzoic acid] |  | 
116 |  | CCOCCn1cc(C2CCN(CCOc3ccc(C)cc3C(=O)O)CC2)c2cc(F)ccc21 [Example 145, 2-(2-{4-[1-(2-ethoxy-ethyl)-5-fluoro-1H-indol-3-yl]-piperidin-1-yl}-ethoxy)-5-methyl-benzoic acid] |  | 
245 |  | CCOCCn1cc(C2CCN(CCC(=O)O)CC2)c2ccccc21 [Example 153, 3-{4-[1-(2-ethoxy-ethyl)-1H-indol-3-yl]-piperidin-1-yl}-propionic acid] |  | 
97 | 123 to 125 | C=CCn1cc(C2CCN(CCOc3ccccc3C(=O)O)CC2)c2ccccc21 [Example 141, 2-{2-[4-(1-allyl-1H-indol-3-yl)-piperidin-1-yl]-ethoxy}-benzoic acid] | > 50 | 
59 |  | CCOCCn1cc(C2CCN(CCc3ccc(C=CC(=O)O)cc3)CC2)c2ccccc21 [Example 32, 3-[4-(2-{4-[1-(2-ethoxy-ethyl)-1H-indol-3-yl]-piperidin-1-yl}-ethyl)-phenyl]-acrylic acid] |  | 
